Common to all, as to type: in vivo
The subject of data set [1] is Echinochloa oryzacola Vasing. The experiment in a line: Test Example 2: herbicidal activity, application during weed generation in submerged conditions (symbol A). To be noted: Table 23; application herbicide amount 320 g/ha; grade 0-5 by criteria of Test Example 1. The essentials: (§1)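 Weeds emerging under flooded conditions were treated with compound formulated as an emulsion and diluted with water to the intended herbicide amount, poured onto the surface of 4 cm standing water. Seeds had been co-sown in alluvial soil; plants grew at 25° C. to 30° C. and were assessed after 3 weeks.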

The subject of the next data set is Setaria viridis. The experiment in a line: Test Example 5: herbicidal effect by foliage application, plastic box (symbol G). To be noted: 320 g/ha, 3 weeks after application. The essentials:
(§2)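 Post-emergence spray; diluvial soil (sterilized), ~1.5 cm seed cover; greenhouse 25–30° C; 14-day-old plants; water-diluted emulsion at predetermined dose; visual score at 3 wk post-treatment.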

Data set [2] concerns beet. The experiment in a line: Test Example 4: effect on crop by soil treatment (symbol f). To be noted: application herbicide amount 320 g/ha. The essentials:
(§3)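 Sterilized diluvial soil, spot sowing, ~1.5 cm soil cover; greenhouse 25–30° C.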

In the next data set the test system is Leptochloa chinensis. The experiment in a line: Test Example 3: herbicidal effect by foliage application, Wagner pot (symbol D). As to conditions: application herbicide amount 320 g/ha. The method, boiled down:
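Alluvial soil was flooded to a depth of 0.1–0.5 cm, seeded with the weeds and rice, and kept in a greenhouse at 25–30 °C. After 14 days of growth, the foliage received a small-sprayer application of emulsion diluted to the intended rate; injury was rated at 3 weeks.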

Another data set concerns Scirpus juncoides. The experiment in a line: Test Example 2: herbicidal activity, application during weed generation in submerged conditions (symbol B). To be noted: Table 23; application herbicide amount 320 g/ha; grade 0-5 by criteria of Test Example 1. The method, boiled down: as §1
The subject of data set [3] is beet. The experiment in a line: Test Example 5: effect on crop by foliage application, plastic box (symbol f). As to conditions: 320 g/ha, 3 weeks after application. The essentials:
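Crop seed is sown alongside grass and broadleaf weed species in spots in sterilized diluvial soil, then covered to a depth of about 1.5 cm. Plants grow in a greenhouse kept at 25° C. to 30° C.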

Data set [4] has as its system Abutilon theophrasti. The experiment in a line: Test Example 5: herbicidal effect by foliage application, plastic box (symbol M). To be noted: 320 g/ha, 3 weeks after application. The essentials: as §2
In data set [5] the test system is Abutilon theophrasti. The experiment in a line: Test Example 4: herbicidal effect by soil treatment (symbol M). As to conditions: application herbicide amount 320 g/ha. The essentials:
(§4)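 Seeds were sown in sterilized diluvial soil, covered with about 1.5 cm of soil, and the soil surface was sprayed with a water-diluted emulsion of the compound at a predetermined rate. Plants grew in a greenhouse at 25° C. to 30° C.; effects were scored visually 3 weeks after application.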

The next data set deals with Avena fatua. The experiment in a line: Test Example 4: herbicidal effect by soil treatment (symbol I). As to conditions: application herbicide amount 320 g/ha. The essentials: as §4
The test system of a further data set is Lolium multiflorum Lam. The experiment in a line: Test Example 5: herbicidal effect by foliage application, plastic box (symbol K). As to conditions: 320 g/ha, 3 weeks after application. The method, boiled down: as §2
A further data set has as its system soybean. The experiment in a line: Test Example 4: effect on crop by soil treatment (symbol d). To be noted: application herbicide amount 320 g/ha. The essentials: as §3
Another data set has as its system transplanted rice plant. The experiment in a line: Test Example 1: effect on crop, application before weed generation in submerged conditions (symbol a). As to conditions: application herbicide amount 320 g/ha. The method, boiled down:
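Rice at 2.5 leaf stage transplanted into submerged soil (4 cm depth) sown with three weed species; herbicide applied before weed emergence.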

As to `CON=C(C)CC1CC(OC(=O)COc2ccccc2OC)=C(c2c(C)cc(C)cc2C)C1=O` (stereo not drawn) [1-067], the “Herbicidal effect grade, A: Echinochloa oryzacola Vasing.” value in data set [1] is 4 (Herbicidal ratio of 70% or higher and lower than 90%). The “G: Setaria viridis, herbicidal effect grade” value with Setaria viridis is 5 (Herbicidal ratio of 90% or more (almost completely withered)). Also, the “f (beet) effect on crop grade” value in the data set on beet [2] is on record as 0 (Herbicidal ratio of 5% or lower (almost no effect)). The “herbicidal effect on D (Leptochloa chinensis), grade 0-5” value in the data set with Leptochloa chinensis is 5 (Herbicidal ratio of 90% or more (almost completely withered)). For the same compound, in the data set with Scirpus juncoides, the “Herbicidal effect grade, B: Scirpus juncoides” value is 4 (Herbicidal ratio of 70% or higher and lower than 90%). In addition, the “f: beet, effect on crop grade” value in the data set on beet [3] is 1 (Herbicidal ratio of 5% or higher and lower than 20%). Moreover, the “M: Abutilon theophrasti, herbicidal effect grade” value in the data set with Abutilon theophrasti [4] is listed as 5 (Herbicidal ratio of 90% or more (almost completely withered)). Moreover, in the data set on Abutilon theophrasti [5], the “M (Abutilon theophrasti) herbicidal effect grade” value is 5 (Herbicidal ratio of 90% or more (almost completely withered)). Further, the “I (Avena fatua) herbicidal effect grade” value in the data set on Avena fatua was 3 (Herbicidal ratio of 40% or higher and lower than 70%). Besides, the “K: Lolium multiflorum Lam., herbicidal effect grade” value in the data set with Lolium multiflorum Lam. is 3 (Herbicidal ratio of 40% or higher and lower than 70%). In addition, the “d (soybean) effect on crop grade” value with soybean is 0 (Herbicidal ratio of 5% or lower (almost no effect)). For the same compound, in the data set with transplanted rice plant, the “Effect grade on crop, a: transplanted rice plant” value is given as 5 (Herbicidal ratio of 90% or more (almost completely withered)).

These data come from patent publication US11000033B2, “Ketone or oxime compound, and herbicide” (NISSAN CHEMICAL CORPORATION, priority 2014, dated 2021).
